Assay results published in PubChem BioAssay (NCI).
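Method: 48-hour compound exposure of cells in 96-well plates, five concentrations, linear interpolation of endpoints. TGI marks complete inhibition of growth.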

Assays:
Assay in all cases: DTP human tumour cell line panel, 48 h
[1] = test system: 786-0 renal
[2] = test system: A549 NSCLC
[3] = test system: HCC-2998 colon
[4] = test system: HCT-116 colon
[5] = test system: HCT-15 colon
[6] = test system: K-562 leukemia
[7] = test system: MOLT-4 leukemia
[8] = test system: NCI-H226 lung
[9] = test system: OVCAR-5 ovarian
[10] = test system: OVCAR-8 ovarian
[11] = test system: RPMI-8226 leukemia
[12] = test system: SF-539 CNS
[13] = test system: SN12C renal
[14] = test system: SW-620 colon
[15] = test system: RXF 393 renal

Structure (SMILES) | TGI [1] [µM] | TGI [2] [µM] | TGI [3] [µM] | TGI [4] [µM] | TGI [5] [µM] | TGI [6] [µM] | TGI [7] [µM] | TGI [8] [µM] | TGI [9] [µM] | TGI [10] [µM] | TGI [11] [µM] | TGI [12] [µM] | TGI [13] [µM] | TGI [14] [µM] | TGI [15] [µM]
C=C1CCC23CC(CC[C@@H]2[C@@]12C[C@@H](c1ccoc1)OC2=O)OC3=O (some centres not stated) | > 100 | > 100 | > 100 | > 100 | > 100 | > 100 | > 100 | > 100 | > 100 | > 100 | > 100 | > 100 | > 100 | > 100 | 
CN1C2CCC1CC(CCNC(c1ccccc1)c1ccccc1)C2 (configuration not stated) | 41.4 | > 100 |  | > 100 | > 100 | 27.4 | > 100 | > 100 | > 100 | > 100 | 56.1 | 35.7 | > 100 | > 100 | 39.1
NC(=S)Nc1ccc(S(=O)(=O)Nc2ccc(S(N)(=O)=O)cc2)cc1 | > 100 | > 100 |  | > 100 | > 100 | > 100 | > 100 | > 100 | > 100 | > 100 | > 100 |  | > 100 | > 100 | > 100
CCOC(=O)C1(C(=O)OCC)C[C@H](C)[C@](C)(O)C1 | > 100 | > 100 |  | > 100 | > 100 | > 100 | > 100 | > 100 | > 100 | > 100 | > 100 | > 100 | > 100 | > 100 | > 100
CC(C)=CC(=O)C[C@H]1C(=O)O[C@@H]2C[C@H]3C(C)=CC(=O)[C@@H](O)[C@]3(C)[C@H]3[C@@]4(O)OC[C@]32[C@@H]1[C@@H](C)[C@H]4O | 0.838 |  | 0.368 | 0.114 | 0.907 | 1.3 | > 100 | < 0.0156 |  | 0.283 | 0.0447 |  |  | 6.26 | 
c1csc(-c2cc(-c3cccs3)c(-c3ccsc3)s2)c1 | > 100 | > 100 | > 100 | > 100 | > 100 | > 100 | > 100 | > 100 |  | > 100 | > 100 | > 100 | > 100 | > 100 | 
NC(CCC(=O)O)C(=O)N1CCN(c2nc(N3CCCC3)c3nc(Cl)c(NCc4ccccc4)nc3n2)CC1 (configuration not stated) | 25.9 | 26.1 | 24.9 | 28.4 | 31 | 35.7 | 24.7 | 32.9 | 33.5 | 38.6 | 34.3 | 28.5 | 30.7 | 51.3 | 
O=C(O)Cc1cccc2c1OC(c1ccccc1)C(Cl)(C(=O)c1ccccc1)C2=O (configuration not stated) | 25.9 | 86 | 26.1 | 29.4 | 28.8 | 22.6 | 62.3 | 80.9 |  | 65.2 | 47.4 | 84.3 | 26.2 | 21.2 | 
C=CCc1cc(-c2cc(CC=C)c(O)c(CNCCCl)c2)cc(CNCCCl)c1O | > 100 | 76.1 | 31.4 | 34.6 | 31.1 | 52.1 | 53.4 | 35.4 |  | 49.4 | 61.9 |  | 44.6 | 44.3 | 
CSC1=N/C(=C\c2ccccc2)C(=O)N1CN1CCCCC1 | > 100 | > 100 |  | > 100 |  | > 100 | > 100 | > 100 | > 100 | > 100 | > 100 |  | > 100 | > 100 | 
Cc1ccc(N=Nc2c(C)c(C#N)c(=S)n(C3OC(CO)C(O)C(O)C3O)c2C)cc1 (configuration not stated) | 83.8 | > 100 | 58.5 | 62.9 | > 100 | > 100 | 48.6 |  | > 100 |  | > 100 | > 100 | 94.2 | 38.8 | 93.6
c1ccc(CSP234N5CCN2CCN3CCN4CC5)c(CSP234N5CCN2CCN3CCN4CC5)c1 | > 100 | > 100 | > 100 | > 100 | > 100 |  | > 100 |  | > 100 | > 100 | > 100 | > 100 | > 100 | > 100 | 
N#Cc1c(-c2ccccc2)cc(Nc2cccc(C(F)(F)F)c2)n2c1nc1ccccc12 | 6.57 |  |  | 3.52 | 10.2 |  | 41 | 4.74 | 10.7 | 10.3 | 6.74 | 5.06 | 4.34 | 14.2 | 11.9
CCn1c2ccccc2n2c(=O)c3c(c(C#N)c12)CCCC3 | > 100 | > 100 | > 100 | > 100 | > 100 | > 100 | > 100 | > 100 | > 100 | > 100 |  | > 100 | > 100 | > 100 | 
COc1ccc(C2C3=C(Nc4ncnn42)c2ccccc2OC3c2ccccc2)cc1 (configuration not stated) | > 100 | > 100 |  | > 100 | > 100 | > 100 | 51 |  | > 100 | > 100 |  | > 100 | > 100 | > 100 | 48.1
COC(=O)C(COC(C)=O)NC(=O)/C=C/c1ccc(O)c(OC(C)=O)c1 (configuration not stated) | > 100 | > 100 | > 100 | > 100 | > 100 | > 100 | > 100 | > 100 | > 100 | > 100 | > 100 | 53.9 | > 100 | > 100 | 
Cc1ccc(-c2c3nc(c(-c4ccc(C)cc4)c4ccc([nH]4)c(-c4ccc(OCC5COC(C)(C)O5)cc4)c4nc(c(-c5ccc(C)cc5)c5ccc2[nH]5)C=C4)C=C3)cc1 (configuration not stated) | > 31.6 | > 31.6 | > 31.6 | > 31.6 | > 31.6 |  | > 31.6 | > 31.6 | > 31.6 | > 31.6 | > 100 | > 31.6 | > 31.6 | > 31.6 | 
